Read-outs that look alike come from different tables or passages of the source.

In data set [1] the test system is D55C MelBSt expressed in E. coli DW2 cells. Description: [3H]melibiose transport assay in intact E. coli DW2 cells, CCCP effect, D55C MelBSt. The format is cell-based, Salmonella enterica serovar Typhimurium. The conditions noted are these: D55C mutant. The method, then:
(§1) E. coli DW2 cells transformed with a given plasmid were grown in Luria-Bertani (LB) broth with 100 mg/L ampicillin in a 37 °C shaker. The overnight cultures were diluted by 5% to fresh LB broth with 0.5% glycerol and 100 mg/L ampicillin and shaken at 30 °C for 5 h. The cells were washed with 50-ml 100 mM KPi, pH 7.5 three times, followed by washing with the assay buffer (100 mM KPi, pH 7.5, 10 mM MgSO4). The cell pellets were resuspended and adjusted to A420 = 10 (∼0.7 mg proteins/ml) with the assay buffer. The transport assay was performed at 0.4 mM [^3H]melibiose (specific activity of 10 mCi/mmol) in the absence of Na^+ and Li^+ or the presence of Na^+ or Li^+ as described ([4], [35]) to test the three transport model coupling to H^+, Na^+, or Li^+, respectively. The transport time courses were carried out by quenching the cells at zero, 5 s, 10 s, 30 s, 1 m, 2 m, 5 m, 10 m, and 30 m by dilution and fast filtration. The filters were subjected to radioactivity measurements using a liquid scintillation counter.
(§2) The CCCP effect on the transport activity at varied pH conditions in the absence of Na^+ and Li^+ was conducted by incubating the extensively washed Na^+-free, Li^+-free cells with 10 μM CCCP for 10 min prior to the transport assay.
(§3) E. coli DW2 cells expressing the WT MelBSt, D55C, or D59C mutants were prepared as described above. […]

In data set [2] the test system is WT MelBSt expressed in E. coli DW2 cells. Description: [3H]melibiose transport assay in intact E. coli DW2 cells, CCCP effect, WT MelBSt. It is filed as cell-based, Salmonella enterica serovar Typhimurium. The method, then: as §1, §2, §3
Data set [3] addresses T1, WT MelBSt (Salmonella typhimurium, UniProt P30878).
T1 construct: His10 (C); made in house; host or cells: E. coli DW2
The conditions noted are these: cited from earlier work.

The target of another data set is T2, D55C MelBSt mutant (Salmonella typhimurium, UniProt P30878, D55C).
T2 construct: His10 (C); made in house; host or cells: E. coli DW2
The format is binding, Salmonella enterica serovar Typhimurium. The settings on record: for Cation binding by ITC: 40 mM NaCl or LiCl titrant, absence or presence of saturating melibiose; for Kd: ITC 25 °C. The method, then:
All ITC ligand-binding assays were performed with the TA Instruments (Nano-ITC device) as described ([15]), which yields the exothermic binding as a positive peak. […] MelBSt protein samples were buffer-matched to the assay buffer by dialysis.
(§4) All samples were degassed using a TA Instruments Degassing Station (model 6326) for 15 min. During the titration, the heat changes were collected at 25 °C, and data processing was performed with the NanoAnalyze (version 3.7.5 software) provided with the instrument. The normalized heat changes were subtracted from the heat of dilution elicited by the last few injections, where no further binding occurred, and the corrected heat changes were plotted against the mole ratio of titrant versus titrand. The binding association constant (Ka) values were obtained by fitting the data using the one-site independent-binding model included in the NanoAnalyze software (version 3.7.5).
(Isothermal titration calorimetry measures the heat released or taken up as one component is titrated into another.)

The target of data set [4] is T1, WT MelBSt. In words: ITC ligand-binding assay, purified WT MelBSt. The conditions noted are these: for Kd: ITC, read-out: Kd of melibiose binding. Set-up: species or system Salmonella enterica serovar Typhimurium. The method, then: All ITC ligand-binding assays were performed with the TA Instruments (Nano-ITC device) as described ([15]), which yields the exothermic binding as a positive peak. In a typical experiment, the titrand (MelBSt) placed in the ITC Sample Cell was titrated with the specified titrant Na^+, Li^+, melibiose, or α-NPG (placed in the Syringe) in the assay buffer by an incremental injection of 2-μL aliquots at an interval of 300 s at a constant stirring rate of 250 rpm (nano-ITC). MelBSt protein samples were buffer-matched to the assay buffer by dialysis. For measuring Na^+ or Li^+ binding, 100 mM choline chloride was supplemented into the Na^+-free buffer.
as §4

The target in another data set is Asp59 (UniProt position 59, WDAINDPIMGW). In words: ITC. The settings on record: cited from earlier work.
Setting [5] is: 10 μM CCCP, all tested external pH conditions, zero, 2 m, 10 m.
[6] abbreviates: cells pre-incubated with 10 μM CCCP, 0.4 mM melibiose, no Na+ and Li+, pH 7.5.
[7] abbreviates: pH 7.5, 100 mM Na+ vs no Na+, from Kd values of ref [8].

`N#CC(C#N)=NNc1cccc(Cl)c1` [CCCP, carbonyl cyanide m-chlorophenylhydrazone]: the “CCCP effect on melibiose transport at varied external pH” value in data set [1] (setting [5]) and in data set [2] (setting [5]) was “completely abolished” each time. Besides, the “CCCP effect on H+-coupled melibiose transport activity” value in data set [1] (setting [6]) and in data set [2] (setting [6]) was “completely inhibited” throughout.

The Kd is the constant that tells how readily two partners part at equilibrium. In the case of `[H+]` [H^+], the “absolute dissociation constant for H+ (pKa value)” value at WT MelBSt [3] (absence of melibiose, ref [15]) is reported as 6.25; at WT MelBSt [3] (presence of melibiose, ref [15]) it was 6.5. Moreover, the Kd at WT MelBSt [3] (absence of melibiose, ref [15], read-out: absolute KD(H+)) is 0.56 µM; on WT MelBSt [3] (presence of melibiose, ref [15], read-out: absolute KD(H+)), 0.26 µM. Besides, the Cooperativity number entry on WT MelBSt [3] (melibiose and H+, based on the effect of sugar on the H+ affinity, ref [15]) is “less than 2”.

As for `[Li+]` [Li^+], the “Cation binding by ITC” value at D55C MelBSt mutant is reported as “eliminated the binding”. Also, the “Cooperativity number (ratio of Kd values of melibiose and cation in absence or presence of the other)” value at WT MelBSt [3] (melibiose and Li+, ref [6]) is approximately 5.

For `OC[C@H]1O[C@H](OCC2O[C@@H](O)[C@H](O)[C@@H](O)[C@@H]2O)[C@H](O)[C@@H](O)[C@H]1O` (stereo partly drawn) [Melibiose, melibiose], the “Affinity change of melibiose with Na+” value is reported as “+1.14-fold” at D55C MelBSt mutant (pH 7.5, 100 mM Na+ vs no Na+); “+8.51-fold” on WT MelBSt [4] (setting [7]); 8.51 fold on WT MelBSt [4] (pH 7.5, 100 mM Na+ vs no Na+, from Kd values of ref [8], listed as melibiose). Further, the Kd is 5090 ± 150 µM at D55C MelBSt mutant (pH 7.5, 100 mM Na+, read-out: Kd of melibiose binding); 5820 ± 460 µM at D55C MelBSt mutant (pH 7.5, no Na+, read-out: Kd of melibiose binding); 6190 ± 590 µM on WT MelBSt [4] (pH 6.25, Na+-free buffer); 8500 ± 210 µM on WT MelBSt [4] (pH 8.5, Na+-free buffer); 1090 ± 60 µM on WT MelBSt [3] (WT MelBSt, pH 7.5, 100 mM Na+, ITC 25 °C, ref [8], read-out: Kd of melibiose binding); 9280 ± 230 µM on WT MelBSt [3] (WT MelBSt, pH 7.5, no Na+, ITC 25 °C, ref [8], read-out: Kd of melibiose binding). The “Affinity change of melibiose with pH” value on WT MelBSt [4] (pH 6.25 vs pH 8.5, no Na+) is given as “+1.37-fold”.

On to `[Na+]` [Na^+], for which, on D55C MelBSt mutant, the “Cation binding by ITC” value is “eliminated the binding”. For the same compound, at WT MelBSt [3] (melibiose and Na+, ref [15]), the “Cooperativity number (ratio of Kd values of melibiose and cation in absence or presence of the other)” value is reported as “approximately 8”.

For the compound `O=[N+]([O-])c1ccc(O[C@H]2O[C@H](CO)[C@H](O)[C@H](O)[C@H]2O)cc1` [α-NPG, 4-nitrophenyl-α-D-galactopyranoside], the Kd on D55C MelBSt mutant (pH 7.5, 100 mM Na+, read-out: Kd of α-NPG binding) was 13.5 ± 1.38 µM; at D55C MelBSt mutant (pH 7.5, no Na+, read-out: Kd of α-NPG binding) it was 15.1 ± 1.86 µM; on WT MelBSt [3] (WT MelBSt, pH 7.5, 100 mM Na+, ITC, ref [8], read-out: Kd of α-NPG binding) it was 25.7 ± 4.42 µM; at WT MelBSt [3] (WT MelBSt, pH 7.5, no Na+, ITC, ref [8], read-out: Kd of α-NPG binding), 43.2 ± 0.62 µM. For the same compound, the “Affinity change of α-NPG with Na+” value on WT MelBSt [4] (setting [7]) was “+ 1.68-fold”.

As usually defined, the pKa is the negative logarithm of the acid dissociation constant. Regarding “Melibiose permease MelB (MelBSt) (Salmonella enterica serovar Typhimurium)”, the pKa result with Asp59 (Melibiose present (per the Introduction). The Discussion sentence does not specify the sugar state.) was “approximately 6.5”; in the data set with Asp59 (No melibiose, no Na+/Li+ bound) it was 6.25.

The record behind these values is publication PMC11259710, “Distinct roles of the major binding residues in the cation-binding pocket of the melibiose transporter MelB” (The Journal of Biological Chemistry, 2024).
